Laboratory results reported in publication PMC8882856, “The affinity and selectivity of α‐adrenoceptor antagonists, antidepressants and antipsychotics for the human α2A, α2B, and α2C‐adrenoceptors and comparison with human α1 and β‐adrenoceptors” (Pharmacology Research & Perspectives, 2022).
Where two headings read alike, the source gives them in different places.

Assays:
human α2C‐adrenoceptor [1] = target: T1, human α2C‐adrenoceptor (Homo sapiens, UniProt P18825)
T1 sequence (P18825 1-462): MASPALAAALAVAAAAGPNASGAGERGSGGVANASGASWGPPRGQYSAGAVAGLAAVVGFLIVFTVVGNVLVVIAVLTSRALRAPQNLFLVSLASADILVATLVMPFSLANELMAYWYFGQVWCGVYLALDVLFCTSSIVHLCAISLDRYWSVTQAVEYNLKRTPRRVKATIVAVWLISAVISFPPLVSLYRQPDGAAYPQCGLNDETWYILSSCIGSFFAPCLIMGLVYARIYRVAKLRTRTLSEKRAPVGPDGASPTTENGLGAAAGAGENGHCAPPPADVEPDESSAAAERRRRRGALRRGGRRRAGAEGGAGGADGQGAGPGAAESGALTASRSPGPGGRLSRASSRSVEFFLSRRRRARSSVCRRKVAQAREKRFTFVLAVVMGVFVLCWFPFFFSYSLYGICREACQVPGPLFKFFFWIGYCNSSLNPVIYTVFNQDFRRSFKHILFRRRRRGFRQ

human α2A‐adrenoceptor [2] = target: T2, human α2A‐adrenoceptor (Homo sapiens, UniProt P08913)
T2 sequence (P08913 1-465): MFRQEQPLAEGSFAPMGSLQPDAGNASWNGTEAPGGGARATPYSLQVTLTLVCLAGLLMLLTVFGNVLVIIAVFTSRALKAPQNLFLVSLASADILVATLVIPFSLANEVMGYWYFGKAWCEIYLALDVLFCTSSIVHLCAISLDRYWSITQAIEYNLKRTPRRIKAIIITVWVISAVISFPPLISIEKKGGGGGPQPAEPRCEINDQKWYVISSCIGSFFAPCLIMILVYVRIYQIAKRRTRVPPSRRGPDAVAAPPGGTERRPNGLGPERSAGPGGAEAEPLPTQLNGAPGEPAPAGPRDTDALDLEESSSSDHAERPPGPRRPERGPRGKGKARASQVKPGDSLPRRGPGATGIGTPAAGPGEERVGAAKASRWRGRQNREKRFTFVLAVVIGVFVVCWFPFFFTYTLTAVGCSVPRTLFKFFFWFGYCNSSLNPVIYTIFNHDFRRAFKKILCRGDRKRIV

human α2C‐adrenoceptor [3] = target: T1, human α2C‐adrenoceptor; assay: ^3H‐rauwolscine whole cell competition binding, CHO‐α2C cells; conditions: for Selectivity ratio α2A vs α2C (higher affinity for α2C) / Selectivity ratio α2B vs α2C (higher affinity for α2C): ratio of KD values
human α2B‐adrenoceptor [4] = target: T3, human α2B‐adrenoceptor (Homo sapiens, UniProt P18089)
T3 sequence (P18089 1-450): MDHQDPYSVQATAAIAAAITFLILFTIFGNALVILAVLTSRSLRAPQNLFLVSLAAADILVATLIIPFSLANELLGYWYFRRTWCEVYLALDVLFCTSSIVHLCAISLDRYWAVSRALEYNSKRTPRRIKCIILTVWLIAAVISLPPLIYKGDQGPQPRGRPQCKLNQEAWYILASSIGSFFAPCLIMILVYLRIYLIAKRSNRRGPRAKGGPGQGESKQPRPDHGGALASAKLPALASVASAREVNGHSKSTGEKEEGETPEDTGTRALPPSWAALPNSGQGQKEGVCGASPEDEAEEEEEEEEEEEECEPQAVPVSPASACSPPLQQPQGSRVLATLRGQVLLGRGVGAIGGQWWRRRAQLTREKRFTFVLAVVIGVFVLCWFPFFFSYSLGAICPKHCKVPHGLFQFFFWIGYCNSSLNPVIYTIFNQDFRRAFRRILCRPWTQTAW

human β2‐adrenoceptor = human β2‐adrenoceptor (Homo sapiens, UniProt P07550); type: binding; conditions: for Log KD β2: ^3H‐CGP12177 whole cell binding, log values, mean ± s.e.mean, ^app = apparent KD, 'no binding to' = log top concentration
human β1‐adrenoceptor [5] = target: T4, human β1‐adrenoceptor (Homo sapiens, UniProt P08588); conditions: for Log KD β1: ^3H‐CGP12177 whole cell binding, log values, mean ± s.e.mean, ^app = apparent KD, 'no binding to' = log top concentration
human α2A‐adrenoceptor [6] = target: T2, human α2A‐adrenoceptor; assay: ^3H‐rauwolscine whole cell competition binding, CHO‐α2A cells; conditions: for Selectivity ratio α2A vs α2B (higher affinity for α2A): ratio of KD values
human α2B‐adrenoceptor [7] = target: T3, human α2B‐adrenoceptor; assay: ^3H‐rauwolscine whole cell competition binding, CHO‐α2B cells; conditions: for Selectivity ratio α2A vs α2B (higher affinity for α2B) / Selectivity ratio α2B vs α2C (higher affinity for α2B): ratio of KD values
human α1A‐adrenoceptor = target: human α1A‐adrenoceptor; design: method as in PMID 32608144; conditions: identical whole cell method; ref [33]; read-out: α1A‐adrenoceptor affinity; cited from earlier work
human α2A‐adrenoceptors = conditions: ref [23]; read-out: human α2A‐affinity; cited from earlier work
human β1‐adrenoceptor [8] = target: T4, human β1‐adrenoceptor; assay: cell-based
human α2C‐adrenoceptor [9] = target: T1, human α2C‐adrenoceptor; assay: cell-based
human α2B‐adrenoceptor [10] = target: T3, human α2B‐adrenoceptor; assay: cell-based
human α2A‐adrenoceptor [11] = target: T2, human α2A‐adrenoceptor; assay: cell-based

T4 sequence (P08588 whole entry): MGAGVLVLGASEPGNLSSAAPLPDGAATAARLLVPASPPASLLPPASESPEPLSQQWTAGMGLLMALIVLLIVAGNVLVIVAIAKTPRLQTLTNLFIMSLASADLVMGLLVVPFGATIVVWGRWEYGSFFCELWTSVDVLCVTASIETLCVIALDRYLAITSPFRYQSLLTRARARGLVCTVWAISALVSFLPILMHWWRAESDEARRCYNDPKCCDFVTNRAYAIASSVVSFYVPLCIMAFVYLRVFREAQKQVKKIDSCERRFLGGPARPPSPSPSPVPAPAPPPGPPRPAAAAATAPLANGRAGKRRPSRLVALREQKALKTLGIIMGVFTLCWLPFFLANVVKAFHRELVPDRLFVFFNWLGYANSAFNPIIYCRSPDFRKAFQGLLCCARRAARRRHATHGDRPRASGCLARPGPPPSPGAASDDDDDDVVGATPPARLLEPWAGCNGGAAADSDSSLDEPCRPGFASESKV
human β2‐adrenoceptor, sequence (P07550 whole entry): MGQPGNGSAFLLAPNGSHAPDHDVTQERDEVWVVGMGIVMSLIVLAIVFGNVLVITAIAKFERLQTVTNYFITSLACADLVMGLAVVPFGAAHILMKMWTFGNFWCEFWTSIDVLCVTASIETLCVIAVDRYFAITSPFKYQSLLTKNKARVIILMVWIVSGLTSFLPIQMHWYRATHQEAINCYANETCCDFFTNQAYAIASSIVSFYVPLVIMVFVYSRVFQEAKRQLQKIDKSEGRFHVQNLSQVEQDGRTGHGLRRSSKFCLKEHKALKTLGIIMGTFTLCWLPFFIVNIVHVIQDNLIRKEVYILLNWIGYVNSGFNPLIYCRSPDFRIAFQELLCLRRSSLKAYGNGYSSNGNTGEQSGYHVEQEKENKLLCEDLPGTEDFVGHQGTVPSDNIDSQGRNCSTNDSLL

Row | Kd (human α2C‐adrenoceptor [1]) | Kd (human α2A‐adrenoceptor [2]) | Selectivity ratio α2A vs α2C (higher affinity for α2C) (human α2C‐adrenoceptor [3]) | Selectivity ratio α2B vs α2C (higher affinity for α2C) (human α2C‐adrenoceptor [3]) | Kd (human α2B‐adrenoceptor [4]) | IC50 (log) β2, IC50>top concentration used (human β2‐adrenoceptor; ^3H‐CGP12177, log value) | IC50 (log) β1, IC50>top concentration used (human β1‐adrenoceptor [5]; ^3H‐CGP12177, log value) | Selectivity ratio α2A vs α2B (higher affinity for α2A) (human α2A‐adrenoceptor [6]) | Log KD β2 (human β2‐adrenoceptor) | Selectivity ratio α2A vs α2B (higher affinity for α2B) (human α2B‐adrenoceptor [7]) | SMILES | other results
1 | 31.6 nM | 162 nM | 5.1 | 36.3 | 1150 nM | IC50>−5 | IC50>−5 | 7.1 |  |  | COc1ccccc1N1CCN(CC2CN3C(=O)N(C)c4ccccc4C3=N2)CC1 (stereo not drawn) [2‐MPMDQ] | 
2 | 85.1 nM | 148 nM | 1.7 | 8.5 | 724 nM | IC50>−4 |  | 4.9 |  |  | O=C1Nc2ccccc2C2=NC(CN3CCN(c4ccccc4)CC3)CN12 (stereo not drawn) [2‐PMDQ] | Log KD β1 (human β1‐adrenoceptor [5]): No binding −4
3 | 34.7 nM |  |  |  | 302 nM |  |  |  | −5.88 ± 0.04 |  | COc1cccc2c1CCC[C@H]2CN(C)CCc1ccc2ccoc2c1.CS(=O)(=O)O [A80426] | 
4 | 8.91 nM | 35.5 nM | 4.0 | 2.1 | 19.1 nM | IC50>−4 | IC50 ~−4.5 |  |  | 1.9 | O=C1c2ccccc2CCC1CNCCc1ccc(O)cc1 (stereo not drawn) [HEAT] | 
5 | 0.437 nM | 1.17 nM | 2.7 | 6.2 | 2.69 nM | IC50>−3 |  | 2.3 |  |  | CCS(=O)(=O)N1CCC[C@@H]2CN3CCc4cc(OC)ccc4[C@@H]3C[C@@H]21 [RS79948] | Log KD β1 (human β1‐adrenoceptor [5]): −3.84 ± 0.05
6 | 15.1 nM | 100 nM | 6.6 | 22.4 | 339 nM |  | IC50>−3 | 3.4 | −4.77 ± 0.07 |  | Cc1c[nH]c(=O)n(CCCN2CCN(c3ccccc3OCC(F)(F)F)CC2)c1=O [RS100329] | 
7 | 66.1 nM | 240 nM | 3.6 |  | 15.8 nM | IC50>−5 | IC50>−5 |  |  | 15.1 | COc1ccc(NC(=O)N2CCc3c2ccc2ccccc32)cc1N1CCN(C)CC1 [S32212] | selectivity α2B versus α2C (human α2B‐adrenoceptor [7]): less than 5 fold; Selectivity ratio α2B vs α2C (higher affinity for α2B) (human α2B‐adrenoceptor [7]): 4.2
8 |  |  |  |  |  |  |  |  |  |  | CN1CCc2cccc(Cl)c2CC1 [SKF86466] | Kd (human β2‐adrenoceptor; this study, read-out: β2‐adrenoceptor affinity): 250 nM; Kd (human α2A‐adrenoceptors): 13 nM; Log KD α2B (human α2B‐adrenoceptor [7]): −6.17 ± 0.047; Kd (human β1‐adrenoceptor [8]): 1200 nM; Kd (human α2A‐adrenoceptor [6]): 513 nM
9 |  |  | 3.0 |  |  |  |  |  |  | 11.0 | CN(C)CC/C=C1\c2ccccc2CSc2ccccc21 [dosulepin] | Kd (human α2C‐adrenoceptor [9]): 2340 nM; IC50 (human β2‐adrenoceptor; ^3H‐CGP12177, log value, read-out: IC50 (log) β2, IC50>top concentration used (converted)): > 100000 nM; Selectivity ratio α2B vs α2C (higher affinity for α2B) (human α2B‐adrenoceptor [7]): 3.7; IC50 (human β1‐adrenoceptor [8]): > 100000 nM; Kd (human α2B‐adrenoceptor [10]): 631 nM; Kd (human α2A‐adrenoceptor [11]): 6920 nM

Row | SMILES | Kd (human α2C‐adrenoceptor [1]) | Kd (human α2A‐adrenoceptor [2]) | Selectivity ratio α2A vs α2C (higher affinity for α2C) (human α2C‐adrenoceptor [3]) | Selectivity ratio α2B vs α2C (higher affinity for α2C) (human α2C‐adrenoceptor [3]) | Kd (human α2B‐adrenoceptor [4]) | IC50 (log) β2, IC50>top concentration used (human β2‐adrenoceptor; ^3H‐CGP12177, log value) | IC50 (log) β1, IC50>top concentration used (human β1‐adrenoceptor [5]; ^3H‐CGP12177, log value) | Selectivity ratio α2A vs α2B (higher affinity for α2A) (human α2A‐adrenoceptor [6]) | Log KD β2 (human β2‐adrenoceptor) | Selectivity ratio α2A vs α2B (higher affinity for α2B) (human α2B‐adrenoceptor [7]) | other results
10 | CN1CCN(c2ccc(Nc3c4ccccc4nc4ccccc34)cc2)CC1 [JP1302] |  |  |  |  |  |  |  |  | −5.58 ± 0.08 |  | Kd (human α1A‐adrenoceptor): 617 nM; α1A‐adrenoceptor affinity less than α2C affinity (human α2C‐adrenoceptor [3]): 5 fold; IC50 (log) β1, IC50>top concentration used (human β1‐adrenoceptor [5]): IC50>−4
